Values quoted from earlier work as cited in PubChem BioAssay AID1259409 (Chemical Carcinogenesis Research Information System (CCRIS), 2018).

Tested on: rodent chemically induced tumor inhibition, incidence and multiplicity
Assay: CCRIS tumor inhibitor studies
Settings: 937-40-6, Dose [Inhibitor]: 0, Route [Inhibitor]: ORAL, Species: RAT, Promoter: NONE USED

For O=c1oc2c(O)c(O)cc3c(=O)oc4c(O)c(O)cc1c4c23, the “tumour outcome (control, treated, inhibition, significance)” value (Carcinogen: N-NITROSOBENZYLMETHYLAMINE, 1.2 UMOL/G IN DIET FOR DURATION OF STUDY BEGINNING 2 WK PRIOR TO CARCINOGEN TREATMENT (STUDY DURATION: 20 WK), Strain/Sex: F344/MALE, Target Tissue: Type of Lesion: ESOPHAGUS: TUMORS, Dose [Carcinogen]: 0.5 MG/KG IN 0.1 ML OF DMSO 1/WK FOR 18 WK) is given as 15/15 (100%), 14/15 (93%), 7%, not significant, the “tumour outcome (control, treated, inhibition, significance)” value (Carcinogen: N-NITROSOBENZYLMETHYLAMINE, 1.2 UMOL/G IN DIET FOR DURATION OF STUDY BEGINNING 2 WK PRIOR TO CARCINOGEN TREATMENT (STUDY DURATION: 20 WK), Strain/Sex: F344/MALE, Target Tissue: Type of Lesion: ESOPHAGUS: TUMORS, Dose [Carcinogen]: 1.25 MG/KG IN 0.1 ML OF DMSO 1/WK FOR 18 WK) is given as 15/15 (100%), 15/15 (100%), 0%, not significant and the “tumour outcome (control, treated, inhibition, significance)” value (Carcinogen: N-NITROSOBENZYLMETHYLAMINE, 1.2 UMOL/G IN DIET FOR DURATION OF STUDY BEGINNING 2 WK PRIOR TO CARCINOGEN TREATMENT (STUDY DURATION: 27 WK), Strain/Sex: F344/MALE, Target Tissue: Type of Lesion: ESOPHAGUS: TUMORS, Dose [Carcinogen]: 0.5 MG/KG IN 0.1 ML OF DMSO 1/WK FOR 18 WK) is given as 15/15 (100%), 15/15 (100%), 0%, not significant. For the same molecule, the “tumour outcome (control, treated, inhibition, significance)” value (Carcinogen: N-NITROSOBENZYLMETHYLAMINE, 1.2 UMOL/G IN DIET FOR DURATION OF STUDY BEGINNING 2 WK PRIOR TO CARCINOGEN TREATMENT (STUDY DURATION: 27 WK), Strain/Sex: F344/MALE, Target Tissue: Type of Lesion: ESOPHAGUS: TUMORS, Dose [Carcinogen]: 1.25 MG/KG IN 0.1 ML OF DMSO 1/WK FOR 18 WK) was 15/15 (100%), 15/15 (100%), 0%, not significant, the “tumour outcome (control, treated, inhibition, significance)” value (Carcinogen: N-NITROSOBENZYLMETHYLAMINE, 4 G/KG IN DIET BEGINNING 2 WK PRIOR TO FIRST CARCINOGEN DOSE (STUDY DURATION: 20 WK), Strain/Sex: F-344/MALE, Target Tissue: Type of Lesion: ESOPHAGUS: TUMOR, Dose [Carcinogen]: 0.5, 1.25 MG/KG 1/WK FOR 18 WK) was 15/15 (100%), 12/15 (80%), 20%, not calculated (low dose carcinogen); 15/15 (100 and the “tumour outcome (control, treated, inhibition, significance)” value (Carcinogen: N-NITROSOBENZYLMETHYLAMINE, 4 G/KG IN DIET BEGINNING 2 WK PRIOR TO FIRST CARCINOGEN DOSE (STUDY DURATION: 27 WK), Strain/Sex: F-344/MALE, Target Tissue: Type of Lesion: ESOPHAGUS: TUMOR, Dose [Carcinogen]: 0.5, 1.25 MG/KG 1/WK FOR 18 WK) was 15/15 (100%), 15/15 (100%), 0%, not calculated (low dose carcinogen); 15/15 (100. The “tumour outcome (control, treated, inhibition, significance)” value (Carcinogen: N-NITROSOBENZYLMETHYLAMINE, 12 UMOL/G IN DIET FOR DURATION OF STUDY BEGINNING 2 WK PRIOR TO CARCINOGEN TREATMENT (STUDY DURATION: 20 WK), Strain/Sex: F344/MALE, Target Tissue: Type of Lesion: ESOPHAGUS: TUMORS, Dose [Carcinogen]: 0.5 MG/KG IN 0.1 ML OF DMSO 1/WK FOR 18 WK) was 15/15 (100%), 12/15 (80%), 20%, not significant, the “tumour outcome (control, treated, inhibition, significance)” value (Carcinogen: N-NITROSOBENZYLMETHYLAMINE, 12 UMOL/G IN DIET FOR DURATION OF STUDY BEGINNING 2 WK PRIOR TO CARCINOGEN TREATMENT (STUDY DURATION: 20 WK), Strain/Sex: F344/MALE, Target Tissue: Type of Lesion: ESOPHAGUS: TUMORS, Dose [Carcinogen]: 1.25 MG/KG IN 0.1 ML OF DMSO 1/WK FOR 18 WK) was 15/15 (100%), 15/15 (100%), 0%, not significant and the “tumour outcome (control, treated, inhibition, significance)” value (Carcinogen: N-NITROSOBENZYLMETHYLAMINE, 12 UMOL/G IN DIET FOR DURATION OF STUDY BEGINNING 2 WK PRIOR TO CARCINOGEN TREATMENT (STUDY DURATION: 27 WK), Strain/Sex: F344/MALE, Target Tissue: Type of Lesion: ESOPHAGUS: TUMORS, Dose [Carcinogen]: 0.5 MG/KG IN 0.1 ML OF DMSO 1/WK FOR 18 WK) was 15/15 (100%), 15/15 (100%), 0%, not significant. For the same molecule, the “tumour outcome (control, treated, inhibition, significance)” value (Carcinogen: N-NITROSOBENZYLMETHYLAMINE, 12 UMOL/G IN DIET FOR DURATION OF STUDY BEGINNING 2 WK PRIOR TO CARCINOGEN TREATMENT (STUDY DURATION: 27 WK), Strain/Sex: F344/MALE, Target Tissue: Type of Lesion: ESOPHAGUS: TUMORS, Dose [Carcinogen]: 1.25 MG/KG IN 0.1 ML OF DMSO 1/WK FOR 18 WK) was 15/15 (100%), 15/15 (100%), 0%, not significant, the “tumour outcome (control, treated, inhibition, significance)” value (Carcinogen: N-NITROSOMETHYLBENZYLAMINE, 400 PPM IN DIET FOR DURATION OF STUDY BEGINNING 1 WK POST CARCINOGEN TREATMENT (STUDY DURATION: 25 WK), Strain/Sex: F344/MALE, Target Tissue: Type of Lesion: ESOPHAGUS: TUMOR, Dose [Carcinogen]: 1 MG/KG 3/WK FOR 5 WK) was 15/15 (100%), 14/15 (93%), 7%, not significant and the “tumour outcome (control, treated, inhibition, significance)” value (Carcinogen: N-NITROSOMETHYLBENZYLAMINE, 4000 PPM IN DIET FOR DURATION OF STUDY BEGINNING 1 WK POST CARCINOGEN TREATMENT (STUDY DURATION: 25 WK), Strain/Sex: F344/MALE, Target Tissue: Type of Lesion: ESOPHAGUS: TUMOR, Dose [Carcinogen]: 1 MG/KG 3/WK FOR 5 WK) was 15/15 (100%), 10/15 (67%), 33%, p<0.05.
